For experiment [1], the system named is Influenza A virus. Nature of the experiment: Antiviral activity against Influenza A virus containing Matrix protein 2 V27A mutant by plaque reduction assay. Type of experiment: functional, organism-based.
In experiment [2] the target is Matrix protein 2 (Influenza A virus, UniProt P06821, V27A). Nature of the experiment: Inhibition of Influenza A virus Matrix protein 2 V27A mutant.

For the compound `CN1CCC2(C1)C1CC3CC(C1)CC2C3` (configuration not stated) [SPIROAMANTADINE], the IC50 (commonly the concentration at which inhibition is half-maximal) in experiment [1] came to 1000 nM; in experiment [2], 300 nM.

(Values after ChEMBL document CHEMBL2163212, “Antivirals targeting influenza A virus” (J Med Chem, 2012).)
